This is an account of results in ChEMBL document CHEMBL3396983, “Synthesis of erythrocentaurin derivatives as a new class of hepatitis B virus inhibitors” (Bioorg Med Chem Lett, 2015).

Data set [1] can be described thus: Selectivity index, ratio of CC50 for human HepG2(2.2.15) cells to IC50 for inhibition of HBV DNA replication in HepG2(2.2.15) cells. Type of data set: functional.
Data set [2] concerns Hepatitis B virus. As to the kind of experiment: Inhibition of HBV HBeAg secretion in HepG2(2.2.15) cells after 72 hrs by ELISA method. It counts as functional, organism-based. The following applies: HepG2 2.2.15, 72 h. For orientation: In an ELISA, binding on a coated surface is turned into a signal by an enzyme label.
The subject of data set [3] is Hepatitis B virus. As to the kind of experiment: Inhibition of HBV DNA replication in HepG2(2.2.15) cells exposed to fresh medium supplemented with compound every other day for additional 5 days by real-time PCR-fluorescent probing method. The following applies: HepG2 2.2.15, 120 h. It counts as functional, organism-based.
Data set [4] deals with Hepatitis B virus. As to the kind of experiment: Inhibition of HBV HBsAg secretion in HepG2(2.2.15) cells after 72 hrs by ELISA method. It counts as functional, organism-based. Conditions: HepG2 2.2.15, 72 h.
A short description of data set [5]: Cytotoxicity against human HepG2(2.2.15) cells after 72 hrs by MTT assay. It counts as cell-based.
Data set [6] in a line: Selectivity index, ratio of CC50 for human HepG2(2.2.15) cells to IC50 for inhibition of HBV HBeAg secretion in HepG2(2.2.15) cells. It counts as functional.
Data set [7] is described as follows: Selectivity index, ratio of CC50 for human HepG2(2.2.15) cells to IC50 for inhibition of HBV HBsAg secretion in HepG2(2.2.15) cells. Type of data set: functional.

SMILES strings stand for the structures. pIC50: −log10 of the molar value.

The pIC50 is −log10 of the IC50, conventionally taken in molar units. The term CC50 denotes the concentration that lowers cell viability or growth by half. Low values mean harm at low concentration, high ones better tolerance by the cells.

With `N=C(N)c1cccc2c1CCOC2=O`, the “Ratio CC50/IC50” value in data set [1] amounted to 5.4. Further, the figures for the pIC50 in data set [2], in data set [3] and in data set [4] were 2.55, 3.42 and 2.65, respectively. The 50% cytotoxic concentration (CC50) at 72 h in data set [5] turned out to be 2050 µM.
With `O=C1OCCc2c(CO)cccc21`, the “Ratio CC50/IC50” value is over 22.4 in data set [1], over 2.6 in data set [6] and over 1.4 in data set [7]. Also, the figures for the pIC50 in data set [2], in data set [3] and in data set [4] were 2.84, 3.77 and 2.57, respectively. In addition, the cytotoxic concentration (CC50) at 72 h in data set [5] was over 3800 µM.
On to `O=C1OCCc2c(/C=C/c3ccccc3)cccc21`, for which the “Ratio CC50/IC50” value in data set [1] is listed as over 22.1. Also, the pIC50 in data set [2] is under 2.61; in data set [3], 3.96; in data set [4], under 2.61. The compound also showed a CC50 at 72 h in data set [5] of over 2430 µM.
With `O=C(OCc1cccc2c1CCOC2=O)c1cccnc1`, the results for the pIC50 in data set [2], in data set [3] and in data set [4] were under 2.57, under 3.17 and under 2.57, respectively. In data set [5], this compound gave a 50% cytotoxic concentration (CC50) at 72 h of over 2700 µM.
Consider `NC(=O)c1cccc2c1CCOC2=O`, for which the “Ratio CC50/IC50” value in data set [1] is over 4. Besides, the pIC50 in data set [2] was under 2.48; in data set [3], 3.09; in data set [4], under 2.48. The compound also showed a CC50 at 72 h in data set [5] of over 3290 µM.
In the case of `O=C1OCCc2c(COC(=O)C3CCCCC3)cccc21`, the “Ratio CC50/IC50” value in data set [1] is over 70.8. Further, the pIC50 in data set [2] is under 2.74; in data set [3], 4.59; in data set [4], under 2.74. In data set [5], this compound returned a CC50 at 72 h of over 1840 µM.
For the compound `CC(=O)OCc1cccc2c1CCOC2=O`, the pIC50 is under 2.61 in data set [2], under 3.07 in data set [3] and 2.88 in data set [4]. For the same compound, the CC50 at 72 h in data set [5] was over 2430 µM. For the same compound, in data set [7], the “Ratio CC50/IC50” value is over 1.8.
As to `O=C(OCc1cccc2c1CCOC2=O)c1cc2ccccc2[nH]1`, in data set [1], the “Ratio CC50/IC50” value is listed as over 26.6. The figures for the pIC50 in data set [2], in data set [3] and in data set [4] were under 2.69, 4.11 and under 2.69, respectively. The compound also came in with a CC50 at 72 h in data set [5] of over 2050 µM.
In the case of `CCOCC(=O)OCc1cccc2c1CCOC2=O`, the pIC50 was under 2.43 in data set [2], under 3.04 in data set [3] and under 2.43 in data set [4]. The 50% cytotoxic concentration (CC50) at 72 h in data set [5] is over 3680 µM.
With `CCCCCCCC(=O)OCc1cccc2c1CCOC2=O`, the negative logarithm of the IC50 (pIC50) was under 2.46 in data set [2], under 3.07 in data set [3] and under 2.46 in data set [4]. The compound also gave a CC50 at 72 h in data set [5] of over 3450 µM.
Consider `O=C1OCCc2c1cccc2C1OCCO1`, for which the figures for the “Ratio CC50/IC50” value in data set [1] and in data set [6] were over 4.5 and over 1.2, respectively. Moreover, the figures for the pIC50 in data set [2], in data set [3] and in data set [4] were 2.66, 3.24 and under 2.59, respectively. In data set [5], this compound showed a half-maximal cytotoxic concentration (CC50) at 72 h of over 2580 µM.
Regarding `COc1cccc(/C=C/C(=O)OCc2cccc3c2CCOC3=O)c1`, the “Ratio CC50/IC50” value was over 36 in data set [1] and over 1.9 in data set [6]. The pIC50 in data set [2] was 3.08; in data set [3], 4.35; in data set [4] it was under 2.79. In data set [5], this compound yielded a CC50 at 72 h of over 1620 µM.
As for `O=C1OCCc2c(/C=C\c3ccccc3)cccc21`, in data set [1], the “Ratio CC50/IC50” value is over 27. Moreover, the negative-log IC50 (pIC50) in data set [2] was under 2.67; in data set [3] it was 4.10; in data set [4] it was under 2.67. In data set [5], this compound gave a CC50 at 72 h of over 2160 µM.
Take `O=C(O)c1cccc2c1CCOC2=O`: the “Ratio CC50/IC50” value in data set [1] was over 11.6; in data set [6], over 1.5; in data set [7] it was over 1.4. Also, the pIC50 in data set [2] was 2.53; in data set [3], 3.41; in data set [4] it was 2.50. In data set [5], this compound registered a CC50 at 72 h of over 4540 µM.
Take `O=C(OCc1cccc2c1CCOC2=O)c1ccco1`: the negative-log IC50 (pIC50) in data set [2] is under 2.63; in data set [3] it was under 3.08; in data set [4] it was under 2.63. For the same compound, in data set [5], the CC50 at 72 h is over 2350 µM.
As to `O=C1OCCc2c(/C=N/Nc3ccc([N+](=O)[O-])cc3[N+](=O)[O-])cccc21`, the pIC50 in data set [2] is 2.87; in data set [3], under 3.39; in data set [4], under 2.78. In addition, the “Ratio CC50/IC50” value in data set [6] is listed as over 1.2. This compound also showed a CC50 at 72 h in data set [5] of over 1650 µM.
In the case of `C[C@H](Cn1cnc2c(N)ncnc21)OCP(=O)(O)O` [TENOFOVIR ANHYDROUS], the “Ratio CC50/IC50” value in data set [1] is given as over 3571.3. Besides, the pIC50 in data set [2] was 2.71; in data set [3], 6.30; in data set [4], 2.63. In data set [5], this compound had a CC50 at 72 h of 1850 µM.
`O=C(OCc1cccc2c1CCOC2=O)c1cc(=O)c2ccccc2o1`: the “Ratio CC50/IC50” value in data set [1] is recorded as 4.9; in data set [6], 1.4; in data set [7], 1.1. For the same compound, the figures for the pIC50 in data set [2], in data set [3] and in data set [4] were 2.74, 3.28 and 2.64, respectively. The compound also showed a CC50 at 72 h in data set [5] of 2570 µM.
For `O=C1OCCc2c(/C=N\O)cccc21`, the “Ratio CC50/IC50” value in data set [1] was over 11.1; in data set [6] it was over 1.7. The figures for the pIC50 in data set [2], in data set [3] and in data set [4] were 2.63, 3.44 and under 2.40, respectively. The CC50 at 72 h in data set [5] was over 4000 µM.
As to `O=C(OCc1cccc2c1CCOC2=O)c1cccc([N+](=O)[O-])c1`, the pIC50 in data set [2] is under 2.57; in data set [3], under 3.17; in data set [4], under 2.57. For the same compound, in data set [5], the CC50 at 72 h was over 2720 µM.
Take `CCC(CC)C(=O)OCc1cccc2c1CCOC2=O`: the pIC50 in data set [2] is under 2.59; in data set [3], under 3.19; in data set [4], under 2.59. This compound also returned a CC50 at 72 h in data set [5] of 1890 µM.
With `O=C1/C(=C/c2cccc3c2CCOC3=O)Oc2cc(O)ccc21`, the pIC50 in data set [2] is under 2.74; in data set [3], under 3.35; in data set [4] it was under 2.74. In data set [5], the CC50 at 72 h was over 1810 µM.
With `O=C(OCc1cccc2c1CCOC2=O)c1cc2ccccc2o1`, the “Ratio CC50/IC50” value is listed as 1.5 in data set [1] and under 1 in data set [7]. Further, the pIC50 was under 2.57 in data set [2], 3.27 in data set [3] and 2.79 in data set [4]. The same compound gave a CC50 at 72 h in data set [5] of 830 µM.
`O=Cc1cccc2c1CCOC2=O`: the entries for the “Ratio CC50/IC50” value in data set [1], in data set [6] and in data set [7] were 2.3, 1.5 and 1.4, respectively. For the same compound, the pIC50 was 2.94 in data set [2], 3.12 in data set [3] and 2.89 in data set [4]. In addition, the CC50 at 72 h in data set [5] was found to be 1760 µM.
As to `O=C(O)c1ccccc1C(=O)OCc1cccc2c1CCOC2=O`, the results for the “Ratio CC50/IC50” value in data set [1], in data set [6] and in data set [7] were 1.6, 2.3 and 1.8, respectively. Besides, the pIC50 was 4.25 in data set [2], 4.08 in data set [3] and 4.14 in data set [4]. In addition, the CC50 at 72 h in data set [5] turned out to be 130 µM.
On to `O=C(OCc1cccc2c1CCOC2=O)c1ccc([N+](=O)[O-])cc1`, for which the negative-log IC50 (pIC50) in data set [2] was under 2.65; in data set [3], under 3.25; in data set [4] it was under 2.65. Also, in data set [5], the CC50 at 72 h was over 2260 µM.
